Reference: patent publication US6573063B2, “Methods and systems for assessing biological materials using optical and spectroscopic detection techniques” (Cytoscan Sciences, LLC, priority 1995, dated 2003)

Experiments:
[1] = tested on: hippocampal tissue slice (CA1, Schaffer collateral stimulation); experiment: Stimulation-evoked afterdischarge in acute hippocampal slice: extracellular field recording and imaging of intrinsic optical signals; assay type: cell-based, rat
Protocol: (§1) Sprague-Dawley rats (male and female; 25 to 35 days old) were prepared as described in Aghajanian, A. K. and Rasmussen, K., Synapse 31:331, 1989; and Buckmaster, P. S., Strowbridge, B. W., Schwartzdroin, P. A., J. Neurophysiol. 70:1281, 1993. In most hippocampal slice experiments, simultaneous extracellular field electrode recordings were obtained from CA1 and CA3 areas. For stimulation-evoked afterdischarge (13 slices, 8 animals), the concentration of Mg^2+ in the bathing medium was reduced to 0.9 mM. A bipolar tungsten stimulating electrode was placed on the Schaffer collaterals to evoke synaptically driven field responses in CA1; stimuli consisted to 100 to 300-μs-duration pulses at an intensity of four times population-spike threshold. After discharges were evoked by a 2-s train of such stimuli delivered at 60 Hz. […] In all treatments, perfusion with furosemide-containing medium was begun after a consistent level of bursting had been established.
For imaging of intrinsic optical signals, the tissue was illuminated with a beam of white light (tungsten filament light and lens system; Dedotec USA, Lodi, N.J.) directed through the microscope condenser. The light was controlled and regulated (power supply: Lambda Electronics, Melville, N.Y.) to minimize fluctuations and filtered (695 nm long-pass) so that the slice was transilluminated with long wavelengths (red). Image frames were acquired with a charge-coupled device camera (Dage-MTI) at 30 Hz and were digitized at 8 bits with a spatial resolution of 512 by 480 pixels by means of an Imaging Technology Series 151 imaging system; gains and offsets of the camera-control box and the analog-to-digital board were adjusted to optimize the sensitivity of the system. Imaging hardware was controlled by a 486-PC-compatible computer running software written by D. Hochman and developed with commercially available software tools (Microsoft's C/C++ Compiler and Imaging Technology's ITEX library). To increase signal-to-noise ratio, an averaged image was composed from 16 individual image-frames, integrated over 0.5 s and averaged together. An experimental series typically involved the continuous acquisition of a series of averaged images over a several minute time period; at least 10 of these averaged images were acquired as control images before stimulation. Pseudocolored images were calculated by subtracting the first control image from subsequently acquired images and assigned a color lookup table to the pixel values. For these images, usually a linear low-pass filter was used to remove high-frequency noise and a linear-histogram stretch was used to map the pixel values over the dynamic range of the system. All operations on these images were linear so that quantitative information was preserved.

[2] = tested on: hippocampal slices; experiment: Spontaneous interictal-like bursts in hippocampal slices after additions to the bathing medium; assay type: cell-based, rat; details: 4 slices
Protocol: as §1

[3] = tested on: brain tumor and normal tissue; experiment: Optical imaging of brain tumor through the intact cranium after intravenous dye injection
[4] = 20 minutes of perfusion with medium containing 2.5 mM furosemide
[5] = following treatment with furosemide (FIG. 3E)

Compound: NS(=O)(=O)c1cc(C(=O)O)c(NCc2ccco2)cc1Cl [furosemide]
- field response to the test pulse [1, 4]: hyperexcitable field response (multiple population spikes)
- stimulation-evoked optical changes [1, 4]: blocked
- electrical afterdischarge activity ([1]; 20 minutes of perfusion with medium containing 2.5 mM furosemide, 2 s stimulation at 60 Hz): blocked
- response pattern after washout ([1]; following 45 minutes of perfusion with normal bathing medium): restoration of the initial response pattern
- epileptiform activity during electrical stimulation [1, 5]: blocks
- intrinsic optical signal during electrical stimulation [1, 5]: blocks

Compound: CN1CCc2cc3c(cc2[C@H]1[C@@H]1OC(=O)c2c1ccc1c2OCO1)OCO3 [bicuculine]
- spontaneous interictal-like bursts, average ([2]; 50 to 100 bicuculine in bathing medium, 3 animals): 14 bursts/min

Compound: CC1(C)C(/C=C/C=C/C=C/C=C2\N(CCCCS(=O)(=O)O)c3ccc4ccccc4c3C2(C)C)=[N+](CCCCS(=O)(=O)[O-])c2ccc3ccccc3c21 [indocyanine green]
- dye distribution in normal and tumor tissue ([3]; five seconds after dye injection): profuse through both normal and tumor tissue
- dye in normal tissue ([3]; one minute after dye injection): cleared the dye
- dye in tumor region ([3]; one minute after dye injection): still retained

Compound: Nc1ccncc1 [4-AP]
- spontaneous interictal-like bursts, average ([2]; 200 to 300 μM 4-AP in bathing medium, 2 animals): 33 bursts/min
